Measurements taken from patent EP0391180A2, “Peptide derivatives of amino acids having a renin-inhibiting effect” (F. HOFFMANN-LA ROCHE AG, priority 1989, dated 1990).

Biological target: T1, Human-Renin (Homo sapiens, UniProt P00797)
T1 sequence (P00797 67-406): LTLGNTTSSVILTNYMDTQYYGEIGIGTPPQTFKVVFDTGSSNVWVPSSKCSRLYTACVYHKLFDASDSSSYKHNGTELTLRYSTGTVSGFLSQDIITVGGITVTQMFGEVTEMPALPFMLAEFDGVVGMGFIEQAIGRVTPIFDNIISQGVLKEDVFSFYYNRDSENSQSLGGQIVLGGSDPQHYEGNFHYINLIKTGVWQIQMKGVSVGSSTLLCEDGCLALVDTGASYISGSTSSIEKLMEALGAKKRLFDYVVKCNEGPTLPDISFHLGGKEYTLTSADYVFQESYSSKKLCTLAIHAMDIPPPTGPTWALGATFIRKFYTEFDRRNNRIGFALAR
Test: In vitro test with pure human renin (angiotensin I production from human tetradecapeptide renin substrate, measured by RIA)
Format: biochemical
Details: not given
Method: In vitro-Test mit reinem Human-Renin
Der Test wird in Eppendorf Röhrchen durchgeführt. Die Inkubationsmischung besteht aus (1) 100 µl Human-Renin in Puffer A (0,1M Natriumphosphatlösung, pH 7,4, enthaltend 0,1% Rinderserumalbumin, 0,1 % Natriumazid und 1 mM Aethylendiamintetraessigsäure), genügend für eine Renin-Aktivität von 2-3 ng Angiotensin I/ ml/Std.; (2) 145 µl Puffer A; (3) 30 µl von 10 µM humanem Tetradekapeptid-Reninsubstrat (hTD) in 10 mM Salzsäure; (4) 15 µl Dimethylsulfoxid mit bzw. ohne Hemmer und (5) 10 µl einer 0,03 molaren Lösung von Hydroxychinolinsulfat in Wasser.
Die Proben werden drei Stunden bei 37°C bzw. 4°C in Triplikaten inkubiert. 2 x 100 µl Proben pro Versuchsröhrchen werden dann verwendet, um die Produktion von Angiotensin I via RIA (standard radioimmunoassay; Clinical Assay solid phase kit) zu messen. Kreuzreaktivitäten der verwendeten Antikörper im RIA sind: Angiotensin I 100 %; Angiotensin II 0,0013 %; hTD (Angiotensin I-Val-Ile-His-Ser-OH) 0,09 %. Die Produktion von Angiotensin I wird durch die Differenz zwischen dem Versuch bei 37°C und demjenigen bei 4°C bestimmt.
Folgende Kontrollen werden mitgeführt: • (a) Inkubation von hTD-Proben ohne Renin und ohne Hemmer bei 37°C und 4°C. Die Differenz zwischen diesen beiden Werten ergibt den Grundwert der Angiotensin I-Produktion. • (b) Inkubation von hTD-Proben mit Renin, jedoch ohne Hemmer bei 37°C und 4°C. Die Differenz zwischen diesen Werten ergibt den Maximalwert der Angiotensin I-Produktion.
In jeder Probe wird von der ermittelten Angiotensin I-Produktion der Grundwert der Angiotensin I-Produktion abgezogen. Die Differenz zwischen dem Maximalwert und dem Grundwert ergibt den Wert der maximalen Substrathydrolyse (=100%) durch Renin.
Die Resultate werden als IC₅₀-Werte angegeben, welche diejenige Konzentration des Hemmers bezeichnen, bei welcher die enzymatische Aktivität um 50% gehemmt wird. Die IC₅₀-Werte werden aus einer linearen Regressionskurve aus einem logit-log plot ermittelt.

Structure (SMILES)	IC50 [nM]
CC(C)(C)OC(=O)N1CCC[C@@H]1C(=O)N[C@@H](Cc1ccccc1)C(=O)N[C@@H](Cc1c[nH]cn1)C(=O)N[C@@H](CC1CCCCC1)C(O)CC1CCCCC1 (single isomer, unassigned) [F]	1

Same assay, conditions: pure human renin, substrate hTD, pH 7,4, incubation 3 h at 37°C vs 4°C, angiotensin I by RIA; IC50 from logit-log plot; read-out: IC₅₀-Werte

Structure (SMILES)	IC50 [nM]
C=C[C@H](CC)C[C@H](O)[C@H](CC1CCCCC1)NC(=O)[C@H](Cc1c[nH]cn1)NC(=O)[C@@H](CC(=O)C(C)(C)C)Cc1ccccc1 [C, (S)-N-[(1S,2S,4R)-1-(Cyclohexylmethyl)-4-äthyl-2-hydroxy-5-hexenyl]-α-[(R)-α-(3,3-dimethyl-2-oxobutyl)hydrocinnamamido]imidazol-4-propionamid]	4.2
CCC(CC)C[C@H](O)[C@H](CC1CCCCC1)NC(=O)[C@H](Cc1c[nH]cn1)NC(=O)[C@H](Cc1ccccc1)NC(=O)[C@H]1CCCN1C(=O)OC(C)(C)C [B, t-Butyl (R)-2-[[(S)-α-[[(S)-1-[[(1S,2S)-1-(cyclohexylmethyl)-2-hydroxy-4-äthylhexyl]carbamoyl]-2-imidazol-4-yläthyl]carbamoyl]phenäthyl]carbamoyl]-1-pyrrolidincarboxylat]	1
C=C[C@H](CC)C[C@H](O)[C@H](CC1CCCCC1)NC(=O)[C@H](Cc1cnc[nH]1)NC(=O)[C@H](Cc1ccccc1)CS(=O)(=O)C(C)(C)C [D, (S)-α-[(S)-α-[(t-Butylsulfonyl)methyl]hydrocinnamamido]-N-[(1S,2S,4R)-1-(cyclohexylmethyl)-4-äthyl-2-hydroxy-5-hexenyl]imidazol-5-propionamid]	1
CC(C)(C)OC(=O)N[C@@H](Cc1ccccc1)C(=O)N[C@@H](Cc1c[nH]cn1)C(=O)N[C@@H](CC1CCCCC1)C(O)CC1CCCCC1 (single isomer, unassigned) [E]	2.6
C=C[C@H](CC)C[C@H](O)[C@H](CC1CCCCC1)NC(=O)[C@H](Cc1c[nH]cn1)NC(=O)[C@H](Cc1ccccc1)NC(=O)[C@H]1CCCN1C(=O)OC(C)(C)C [A, t-Butyl (R)-2-[[(S)-α-[[(S)-1-[[(1S,2S,4R)-1-(cyclohexylmethyl)-2-hydroxy-4-äthyl-5-hexenyl]carbamoyl]-2-imidazol-4-yläthyl]carbamoyl]phenäthyl]carbamoyl]-1-pyrrolidincarboxylat]	0.2
CCC(F)(CC)C[C@H](O)[C@H](CC1CCCCC1)NC(=O)[C@H](Cc1c[nH]cn1)NC(=O)[C@@H](CC(=O)C(C)(C)C)Cc1ccccc1 [G, (S)-N-[(1S,2S)-1-(Cyclohexylmethyl)-4-äthyl-4-fluor-2-hydroxyhexyl]-α-[(R)-α-(3,3-dimethyl-2-oxobutyl)hydrocinnamamido]imidazol-4-propionamid]	5
